Test results reported in ChEMBL document CHEMBL1127063, “NMR and computational evidence that high-affinity bradykinin receptor antagonists adopt C-terminal beta-turns” (J Med Chem, 1993).

What was measured:
Cavia porcellus = species on record: Cavia porcellus; assay: pA2 value against guinea pig ileum.; format: functional; conditions: read-out: pA2 (converted)
B2 bradykinin receptor = biological target: T1, B2 bradykinin receptor (Cavia porcellus, UniProt O70526); assay: In vitro binding affinity against bradykinin receptor B2 from guinea pig ileum.; format: tissue-based
T1 sequence (O70526 whole entry): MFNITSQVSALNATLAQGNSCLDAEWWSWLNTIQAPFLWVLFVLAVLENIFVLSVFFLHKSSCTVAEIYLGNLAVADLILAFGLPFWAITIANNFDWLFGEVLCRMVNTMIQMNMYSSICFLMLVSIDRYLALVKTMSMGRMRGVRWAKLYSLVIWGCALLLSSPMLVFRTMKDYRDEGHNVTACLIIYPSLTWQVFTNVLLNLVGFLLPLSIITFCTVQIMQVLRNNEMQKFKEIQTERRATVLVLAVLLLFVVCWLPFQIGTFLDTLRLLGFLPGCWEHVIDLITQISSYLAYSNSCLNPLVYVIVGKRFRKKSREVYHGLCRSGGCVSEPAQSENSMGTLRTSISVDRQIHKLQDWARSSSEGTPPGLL

SMILES: NC(N)=NCCC[C@@H](N)C(=O)N[C@@H](CCCN=C(N)N)C(=O)N1CCC[C@H]1C(=O)N1CCC[C@H]1C(=O)NCC(=O)N[C@@H](Cc1ccccc1)C(=O)N[C@@H](CO)C(=O)N[C@H](Cc1ccccc1)C(=O)N1C2CCCCC2C[C@H]1C(=O)N[C@@H](CCCN=C(N)N)C(=O)O (stereo partly specified)
- Kb (Cavia porcellus): 5.01 nM
- Ki (B2 bradykinin receptor): 0.75 nM

SMILES: CCCO[C@H]1C[C@H](C(=O)N2[C@H](C(=O)N[C@@H](CCCNC(=N)N)C(=O)O)C[C@@H]3CCCC[C@@H]32)N(C(=O)[C@H](CO)NC(=O)[C@H](Cc2cccs2)NC(=O)CNC(=O)[C@@H]2C[C@@H](O)CN2C(=O)[C@@H]2CCCN2C(=O)[C@H](CCCNC(=N)N)NC(=O)[C@H](N)CCCNC(=N)N)C1
- Kb (Cavia porcellus): 3.16 nM
- Ki (B2 bradykinin receptor): 0.16 nM

SMILES: NC(N)=NCCC[C@@H](N)C(=O)N[C@@H](CCCN=C(N)N)C(=O)N1CCC[C@H]1C(=O)N1C[C@H](O)C[C@H]1C(=O)NCC(=O)N[C@@H](Cc1cccs1)C(=O)N[C@@H](CO)C(=O)N1Cc2ccccc2C[C@@H]1C(=O)N1[C@H](C(=O)N[C@@H](CCCN=C(N)N)C(=O)O)C[C@@H]2CCCC[C@@H]21 [ICATIBANT]
- Kb (Cavia porcellus): 2 nM
- Ki (B2 bradykinin receptor): 0.11 nM
